Assay results published in publication PMC5735376, “Dual Level Statistical Investigation of Equilibrium Solubility in Simulated Fasted and Fed Intestinal Fluid” (Molecular Pharmaceutics, 2017).
Like-named read-outs stand apart in the source and are kept apart here.

Key:
[1] = Equilibrium solubility in simulated intestinal fluid, dual level DoE, fed arm; format: physicochemical; details: for statistical significance of DoE factor BS:PL on equilibrium solubility / statistical significance of DoE factor bile salt on equilibrium solubility / statistical significance of DoE factor cholesterol on equilibrium solubility / statistical significance of DoE factor lecithin on equilibrium solubility / statistical significance of DoE factor monoglyceride on equilibrium solubility / statistical significance of DoE factor pH on equilibrium solubility / statistical significance of DoE factor sodium oleate on equilibrium solubility: fed, current study (Figure 3)
Source text: (§1) For each media parameter (bile salt, lecithin, sodium oleate, monoglyceride, cholesterol, pH and BS: PL ratio) lower and upper limit concentration values for fasted and fed states were defined, Table 1. Using Minitab 17.2.1 and a custom experimental design, a 1/16 of the full factorial DoE with the seven factors and two levels (lower and upper limits) was constructed (8 experiments around the upper and lower levels plus two center points) separately for the fasted and the fed states. These two tables were then applied as an input for a factorial custom design of experiment which combined the fasted and fed using all 20 data points to provide an overall analysis. The study therefore consists of three arms, two smaller (10 data point) fasted and fed arms, which are then merged into a larger (20 data point) combined arm.
(§2) When designing and analyzing the DoE, only a factor’s main effects and 2 way interactions have been considered and 3 way interactions or more were not included. For each DoE the magnitude for each factor’s effect on equilibrium solubility was determined by the standardized effect value for all of the individual factors and the significant 2-way interactions. This value was used to articulate whether these factors are increasing or decreasing drug solubility.
(§3) The solution was prepared by the addition of an excess amount (above the estimated solubility) of solid for each compound investigated to a centrifuge tube (15 mL Corning Centristar cap, polypropylene RNase/DNase free, nonpyrogenic) followed by the addition of each component of the simulated intestinal fluid media according to the run order generated by the DoE. After all of the media components were added, pH was adjusted to 5, 6, or 7 according to the run order using 0.1 M HCl or 0.1 M KOH and tubes were capped and placed on an orbital shaker (OS 5 basic Yellowline, IKA, Germany) for 1 h after which the pH was readjusted if required. The 20 different tubes were then shaken in a tube rotator for 24 h at 40 rpm at 37 °C to simulate intestinal fluid conditions. After 24 h, a 1 mL amount was taken from each of the 20 tubes and transferred to a 1.5 mL Eppendorf tube then centrifuged at 15 000 rpm for 5 min. Following centrifugation 0.5 mL of the supernatant solution was transferred to an HPLC vial to analyze drug solubility using HPLC (Table 4).

[2] = design: method as in ref 14, Figure 2; details: fed, published; Figure 2; cited from earlier work
[3] = Equilibrium solubility in simulated intestinal fluid, dual level DoE, combined fasted and fed arm; format: physicochemical; details: combined arm; for significance of sodium oleate for solubility: Figure 4, significance ±2, positive solubility impact
Source text: as §1, §2, §3

[4] = Statistical comparison of equilibrium solubility data sets (Mann-Whitney test / two-sample t-test); format: physicochemical; details: for statistical comparison of fasted against fed equilibrium solubility: current dual level DoE, where significant, fasted solubility lower than fed; for statistical comparison of dual level fasted with published fasted equilibrium solubility: current fasted arm vs published fasted DoE; for statistical comparison of dual level fed with published fed equilibrium solubility: current fed arm vs published fed DoE
Source text: The Kolmogorov normality test was used in Minitab to assess the normality distribution of each data set. A Mann–Whitney test was used to evaluate the median between two data sets (not normally distributed) and the two-sample t-test was used to evaluate the mean of two data sets (normally distributed).

[5] = design: method as in ref 13, Figure 2; details: fasted, published; Figure 2; cited from earlier work
[6] = Equilibrium solubility in simulated intestinal fluid, dual level DoE, fasted arm; format: physicochemical; details: for direction of monoglyceride effect on solubility (standardized effect): fasted arm, Figure 3; for statistical significance of DoE factor BS:PL on equilibrium solubility / statistical significance of DoE factor bile salt on equilibrium solubility / statistical significance of DoE factor cholesterol on equilibrium solubility / statistical significance of DoE factor lecithin on equilibrium solubility / statistical significance of DoE factor monoglyceride on equilibrium solubility / statistical significance of DoE factor pH on equilibrium solubility / statistical significance of DoE factor sodium oleate on equilibrium solubility: fasted, current study (Figure 3); for significant DoE factors influencing solubility: fasted and fed study arms together (14 possible values per drug), significance ±4
Source text: as §1, §2, §3

statistical significance of DoE factor BS:PL on equilibrium solubility [1] | statistical significance of DoE factor bile salt on equilibrium solubility [1] | statistical significance of DoE factor cholesterol on equilibrium solubility [1] | statistical significance of DoE factor lecithin on equilibrium solubility [1] | statistical significance of DoE factor monoglyceride on equilibrium solubility [1] | statistical significance of DoE factor pH on equilibrium solubility [1] | statistical significance of DoE factor sodium oleate on equilibrium solubility [1] | statistical comparison of fasted against fed equilibrium solubility [4] | statistical significance of DoE factor BS:PL on equilibrium solubility [6] | statistical significance of DoE factor bile salt on equilibrium solubility [6] | statistical significance of DoE factor cholesterol on equilibrium solubility [6] | SMILES | statistical significance of DoE factor bile salt on equilibrium solubility [2] | statistical significance of DoE factor lecithin on equilibrium solubility [2] | statistical significance of DoE factor monoglyceride on equilibrium solubility [2] | statistical significance of DoE factor pH on equilibrium solubility [2] | statistical significance of DoE factor sodium oleate on equilibrium solubility [2] | statistical significance of DoE factor bile salt on equilibrium solubility [5] | statistical significance of DoE factor lecithin on equilibrium solubility [5] | statistical significance of DoE factor pH on equilibrium solubility [5] | statistical significance of DoE factor sodium oleate on equilibrium solubility [5] | also measured
NS ^e | NS ^e ^g | NS ^e | NS ^e ^g | NS ^e | NS ^e ^g | NS ^e ^g | no statistically significant difference | NS ^e | NS ^e ^g | NS ^e | C[C@@H](O[C@H]1OCCN(Cc2n[nH]c(=O)[nH]2)[C@H]1c1ccc(F)cc1)c1cc(C(F)(F)F)cc(C(F)(F)F)c1 [aprepitant] | S ^d ^g | S ^d ^g | NS ^e | S ^d ^g | S ^d ^g | S ^d ^g | NS ^e ^g | S ^d ^g | S ^d | significance of lecithin for solubility ([3]; Figure 4, significance ±2): significant; significance of sodium oleate for solubility [3]: significant; statistical comparison of dual level fasted with published fasted equilibrium solubility [4]: significantly different; statistical comparison of dual level fed with published fed equilibrium solubility [4]: significantly different; direction of monoglyceride effect on solubility (standardized effect) [6]: positively impacts; statistical significance of DoE factor lecithin on equilibrium solubility [6]: S ^d ^g; statistical significance of DoE factor monoglyceride on equilibrium solubility [6]: S ^d; statistical significance of DoE factor pH on equilibrium solubility [6]: NS ^e ^g; statistical significance of DoE factor sodium oleate on equilibrium solubility [6]: S ^d
NS ^e | NS ^e ^g | NS ^e | NS ^e | NS ^e ^g | NS ^e ^g | NS ^e ^g | significant difference | NS ^e | NS ^e ^g | NS ^e | COc1ccccc1OCCNCC(O)COc1cccc2[nH]c3ccccc3c12 (stereo not shown) [carvedilol] | S ^d ^g | NS ^e | S ^d ^g | S ^d ^g | S ^d ^g | S ^d ^g | S ^d ^g | S ^d ^g | S ^d ^g | significance of sodium oleate for solubility [3]: significant; statistical comparison of dual level fed with published fed equilibrium solubility [4]: significantly different; significant DoE factors influencing solubility [6]: no significant factors; statistical significance of DoE factor lecithin on equilibrium solubility [6]: NS ^e ^g; statistical significance of DoE factor monoglyceride on equilibrium solubility [6]: NS ^e; statistical significance of DoE factor pH on equilibrium solubility [6]: NS ^e ^g; statistical significance of DoE factor sodium oleate on equilibrium solubility [6]: NS ^e ^g
NS ^e | S ^d | NS ^e | S ^d | S ^d ^g | NS ^e ^g | S ^d | significant difference | NS ^e | NS ^e ^g | NS ^e | CCOC(=O)C1=C(C)NC(C)=C(C(=O)OC)C1c1cccc(Cl)c1Cl (stereo not shown) [felodipine] | S ^d | S ^d | NS ^e ^g | S ^d ^g | S ^d | S ^d ^g | S ^d | S ^d | S ^d | direction of monoglyceride effect on solubility (standardized effect) ([1]; fed arm, Figure 3): positive effect; significance of bile salt for solubility ([3]; Figure 4, significance ±2): significant; significance of cholesterol for solubility ([3]; Figure 4, significance ±2): significant; statistical comparison of dual level fasted with published fasted equilibrium solubility [4]: significantly different; significant DoE factors influencing solubility [6]: eight out of a possible 14; direction of monoglyceride effect on solubility (standardized effect) [6]: positive effect; statistical significance of DoE factor lecithin on equilibrium solubility [6]: S ^d; statistical significance of DoE factor monoglyceride on equilibrium solubility [6]: S ^d; statistical significance of DoE factor pH on equilibrium solubility [6]: S ^d; statistical significance of DoE factor sodium oleate on equilibrium solubility [6]: S ^d
NS ^e | NS ^e ^g | NS ^e | NS ^e | NS ^e | S ^d | NS ^e ^g | no statistically significant difference | NS ^e | NS ^e ^g | NS ^e | COc1ccc2c(c1)c(CC(=O)O)c(C)n2C(=O)c1ccc(Cl)cc1 [indomethacin] | S ^d ^g | NS ^e | NS ^e | S ^d | S ^d ^g | S ^d ^g | NS ^e | S ^d | S ^d ^g | significance of pH for solubility ([3]; Figure 4, significance ±2): significant; significant two way factor interactions on solubility ([3]; eight two way interactions, Figure 4): no significant interactions; statistical significance of DoE factor lecithin on equilibrium solubility [6]: NS ^e; statistical significance of DoE factor monoglyceride on equilibrium solubility [6]: NS ^e; statistical significance of DoE factor pH on equilibrium solubility [6]: S ^d; statistical significance of DoE factor sodium oleate on equilibrium solubility [6]: NS ^e ^g
